According to PMC9841532, “Exploring the Effect of Halogenation in a Series of Potent and Selective A2B Adenosine Receptor Antagonists” (Journal of Medicinal Chemistry, 2022):
≈ marks a conversion by molar mass, not a printed value. Like-named read-outs stand apart in the source and are kept apart here.

Key:
hA2AAR [1] = biological target: T1, hA2AAR (Homo sapiens, UniProt P29274); conditions: prototype series, human HeLa cells ref 30, 31; cited from earlier work
T1 construct: expressed in transfected cells; host or cells: HeLa (HeLa-A2A) cell membranes
T1 sequence (P29274 whole entry): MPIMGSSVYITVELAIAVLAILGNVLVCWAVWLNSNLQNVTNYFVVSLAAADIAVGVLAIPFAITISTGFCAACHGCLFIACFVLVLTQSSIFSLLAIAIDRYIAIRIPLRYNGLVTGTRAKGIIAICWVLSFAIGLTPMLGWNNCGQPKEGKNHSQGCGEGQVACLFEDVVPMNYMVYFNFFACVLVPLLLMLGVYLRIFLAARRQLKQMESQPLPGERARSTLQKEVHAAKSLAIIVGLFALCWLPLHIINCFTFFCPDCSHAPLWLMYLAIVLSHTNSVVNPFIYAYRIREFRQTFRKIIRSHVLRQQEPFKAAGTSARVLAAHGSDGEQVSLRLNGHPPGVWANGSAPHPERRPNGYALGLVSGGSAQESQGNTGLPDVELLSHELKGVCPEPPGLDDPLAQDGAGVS

hA3AR [2] = biological target: T2, hA3AR (Homo sapiens, UniProt P0DMS8); conditions: prototype series, [3H]NECA, human HeLa cells ref 30, 31; cited from earlier work
T2 construct: expressed in transfected cells; host or cells: HeLa (HeLa-A3) cell membranes
T2 sequence (P0DMS8 1-318): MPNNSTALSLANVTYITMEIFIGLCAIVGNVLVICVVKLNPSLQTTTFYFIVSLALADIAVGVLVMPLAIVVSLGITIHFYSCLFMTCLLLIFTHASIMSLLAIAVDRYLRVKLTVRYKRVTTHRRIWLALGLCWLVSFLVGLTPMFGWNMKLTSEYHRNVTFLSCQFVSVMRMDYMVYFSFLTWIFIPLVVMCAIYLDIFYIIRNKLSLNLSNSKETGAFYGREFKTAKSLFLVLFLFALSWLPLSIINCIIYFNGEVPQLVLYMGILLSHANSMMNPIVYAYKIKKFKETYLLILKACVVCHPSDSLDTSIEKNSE

hA2BAR = biological target: T3, hA2BAR (Homo sapiens, UniProt P29275); test: Radioligand binding competition, [3H]DPCPX, membranes from HEK-293-A2B cells; design: Exp. dG: unit not given here; conditions: for Exp. dG: experimental binding free energy, Supplementary Table S3, unit not given (errors in kcal/mol); for Ki: read-out: Ki hA2B
T3 construct: host or cells: HEK-293 (HEK-293-A2B) cell membranes
T3 sequence (P29275 1-332): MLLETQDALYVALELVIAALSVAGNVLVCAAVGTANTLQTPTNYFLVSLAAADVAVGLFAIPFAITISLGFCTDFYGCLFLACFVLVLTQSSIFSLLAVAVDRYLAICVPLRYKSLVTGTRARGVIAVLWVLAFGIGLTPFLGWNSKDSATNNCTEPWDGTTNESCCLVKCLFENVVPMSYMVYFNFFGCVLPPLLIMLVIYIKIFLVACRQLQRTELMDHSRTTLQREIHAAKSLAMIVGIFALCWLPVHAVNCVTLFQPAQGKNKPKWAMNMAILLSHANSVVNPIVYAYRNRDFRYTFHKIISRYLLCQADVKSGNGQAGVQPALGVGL
Method in brief: (§1)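 Racemates, plus selected enantiomers after chiral resolution, were tested at 25 °C, with a 60 min incubation for one subtype and 30 min for others. Non-specific binding was defined with 10 μM or 100 μM R-PIA. Bound radioactivity was counted after washing and filtration.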

hA1AR [3] = biological target: T4, hA1AR (Homo sapiens, UniProt P30542); conditions: prototype series, [3H]DPCPX, human CHO cells ref 30, 31; cited from earlier work
T4 sequence (P30542 1-326): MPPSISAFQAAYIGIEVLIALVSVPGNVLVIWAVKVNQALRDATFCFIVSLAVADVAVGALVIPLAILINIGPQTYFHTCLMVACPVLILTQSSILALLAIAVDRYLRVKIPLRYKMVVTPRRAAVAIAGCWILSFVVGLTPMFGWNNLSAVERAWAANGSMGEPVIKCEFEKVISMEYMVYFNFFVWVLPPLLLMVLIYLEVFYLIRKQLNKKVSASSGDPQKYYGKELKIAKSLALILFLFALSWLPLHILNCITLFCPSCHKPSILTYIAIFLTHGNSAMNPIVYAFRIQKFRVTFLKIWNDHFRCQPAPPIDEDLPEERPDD

CYP3A4 = biological target: T5, CYP3A4 (Homo sapiens, UniProt P08684); test: CYP3A4 inhibition (fluorescence, substrates DBF or 7-BFC); type: biochemical; conditions: for IC50: IC50 obtained by extrapolation with analysis software
T5 construct: host or cells: insect cell microsomes
T5 sequence (P08684 whole entry): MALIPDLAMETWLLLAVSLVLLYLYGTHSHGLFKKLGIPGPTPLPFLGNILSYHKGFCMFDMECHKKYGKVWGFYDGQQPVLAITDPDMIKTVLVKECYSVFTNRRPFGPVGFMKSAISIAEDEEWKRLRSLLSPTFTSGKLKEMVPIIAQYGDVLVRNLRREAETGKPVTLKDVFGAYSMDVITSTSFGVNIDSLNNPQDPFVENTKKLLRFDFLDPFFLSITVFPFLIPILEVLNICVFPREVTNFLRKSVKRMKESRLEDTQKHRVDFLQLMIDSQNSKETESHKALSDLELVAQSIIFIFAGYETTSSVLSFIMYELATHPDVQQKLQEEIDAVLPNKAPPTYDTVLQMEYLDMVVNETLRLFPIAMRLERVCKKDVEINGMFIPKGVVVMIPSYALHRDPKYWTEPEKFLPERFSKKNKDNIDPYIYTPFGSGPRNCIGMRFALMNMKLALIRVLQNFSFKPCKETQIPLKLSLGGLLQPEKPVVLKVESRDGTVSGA
Description: To identify potential metabolic liabilities within the series here documented, the selected A2BAR antagonists were tested in vitro for CYP3A4 inhibitory activity.
The inhibitory activity of selected compounds was evaluated by following a previously described method.[31] […] The plate was then pre-incubated at 37 °C for 5 min and the reaction initiated by the addition of a pre-warmed enzyme/substrate (E/S) mix. The E/S mix contained buffer (KH2PO4), c-DNA-expressed P450 in insect cell microsomes, substrate (DBF: dibenzylfluorescein or 7-BFC: 7-benzyloxy-4-trifluoromethyl-coumarin) and other components to give the final assay concentrations in a reaction volume of 200 μL. Reactions were terminated after various times (a specific time for each cytochrome) by addition of STOP solution (ACN/Tris–HCl 0.5 M 80:20, and NaOH 2 N for CYP3A4). Fluorescence per well was measured using a fluorescence plate reader (Tecan Infinite M1000 PRO), and percentage of inhibition was calculated. In silico predictions were performed using free web-based models (FAME 3, SmartCYP, and Xenosite).[62]−[64]

hA3AR [4] = biological target: T2, hA3AR; test: Radioligand binding competition, [3H]NECA, membranes from HeLa-A3 cells; conditions: 1 μM, [3H]NECA, human HeLa cells, n = 2
Method in brief: as §1

hA2AAR [5] = biological target: T1, hA2AAR; test: Radioligand binding competition, [3H]ZM241385, membranes from HeLa-A2A cells; conditions: for % at 1 μM hA2A (percentage displacement of specific binding): [3H]ZM241385, human HeLa cells, n = 2
Method in brief: as §1

[6] = Human microsomal stability; type: in vitro ADME; conditions: human microsomes
Description: The human microsomal stability of selected compounds was evaluated by following a previously described method.[31] The human microsomes employed were purchased from Tebu-Xenotech. The compound was incubated with the microsomes at 37 °C in a 50 mM phosphate buffer (pH = 7.4) containing 3 mM MgCl2, 1 mM NADP, 10 mM glucose-6-phosphate, and 1 U/mL glucose-6-phosphate-dehydrogenase. Samples (75 μL) were taken from each well at 0, 10, 20, 40, and 60 min and transferred to a plate containing 4 °C 75 μL acetonitrile and 30 μL of 0.5% formic acid in water was added for improving the chromatographic conditions. The plate was centrifuged (46,000 g, 30 min), and supernatants were taken and analyzed in a UPLC-MS/MS (Xevo TQD, Waters) by employing a BEH C18 column and an isocratic gradient of 0.1% formic acid in water:0.1% formic acid acetonitrile (60:40). The metabolic stability of the compounds was calculated from the logarithm of the remaining compounds at each of the time point studied.

[7] = Solubility determination (nephelometry); type: physicochemical; conditions: 1:99 DMSO/PSB buffer, PBS pH 7, 37 °C
Description: The solubility of selected compounds was evaluated by following a previously described method.[31] A 10 mM stock solution of the compound was serially diluted in 100% DMSO, and 2.5 μL of this solution was added to a 384-well UV-transparent plate (Greiner) containing 47.5 μL of PBS (pH = 7). The plate was incubated at 37 °C for 4 h, and the light scattering was measured in a NEPHELOstar Plus reader (BMG LABTECH). The data was fitted to a segmented linear regression for measuring the compound solubility.

hA1AR [8] = biological target: T4, hA1AR; test: Radioligand binding competition, [3H]DPCPX, membranes from CHO-A1 cells; conditions: 1 μM, [3H]DPCPX, human CHO cells, n = 2
Method in brief: as §1

A2B = conditions: Figure 1, representative A2B antagonists ref 28-32; read-out: Ki; cited from earlier work
[9] = displacement of specific [3H]DPCPX binding in human HEK-293 cells, n = 3

CC1=C(C(=O)OC(C)C)C(c2ccsc2)n2c(nc3ccccc32)N1 (centres unmarked) [VIII]
% at 1 μM hA2A (percentage displacement of specific binding) (hA2AAR [1]): 3%
% at 1 μM hA3 (percentage displacement of specific binding) (hA3AR [2]): 21%
Exp. dG (hA2BAR): -10.27
% at 1 μM hA1 (percentage displacement of specific binding) (hA1AR [3]): 11%

CCOC(=O)C1=C(C)Nc2nc3ccccc3n2C1c1cccs1 (centres unmarked) [V]
% at 1 μM hA2A (percentage displacement of specific binding) (hA2AAR [1]): 16%
% at 1 μM hA3 (percentage displacement of specific binding) (hA3AR [2]): 1%
% at 1 μM hA1 (percentage displacement of specific binding) (hA1AR [3]): 8%

CCOC(=O)C1=C(C)Nc2nc3ccccc3n2C1c1ccsc1 (centres unmarked) [VII]
% at 1 μM hA2A (percentage displacement of specific binding) (hA2AAR [1]): 10%
% at 1 μM hA3 (percentage displacement of specific binding) (hA3AR [2]): 2%
Exp. dG (hA2BAR): -10.26
% at 1 μM hA1 (percentage displacement of specific binding) (hA1AR [3]): 3%

CC1=C(C(=O)OC(C)C)C(c2ccoc2)n2c(nc3cc(Cl)ccc32)N1 (centres unmarked) [16l]
CYP3A4 % inh. at 10 μM, 7-BFC (CYP3A4; 10 μM, substrate 7-benzyloxy-4-trifluoromethyl-coumarin): 44%
IC50 (CYP3A4; substrate 7-benzyloxy-4-trifluoromethyl-coumarin, read-out: CYP3A4 IC50, 7-BFC): > 10 µM
IC50 (CYP3A4; substrate dibenzylfluorescein, read-out: CYP3A4 IC50, DBF): 6.36 ± 1.02 µM
% at 1 μM hA3 (percentage displacement of specific binding) (hA3AR [4]): 1%
Ki (hA2BAR; [9]): 0.0061 ± 0.0007 µM
Exp. dG (hA2BAR): -11.2
Ki (hA2BAR): < 0.01 µM
Ki (hA2AAR [5]; displacement of specific [3H]ZM241385 binding in human HeLa cells, n = 3, read-out: Ki hA2A): 0.176 ± 0.004 µM
microsomal stability percent (percentage remanent) ([6]; sampling time 60 min): 41.02%
microsomal CLint at 1 h ([6]; human, pH 7.4, read-out: microsomal stability Clint (intrinsic clearance)): 11.7 µL/min/mg
half-life at 1 h ([6]; human, pH 7.4, read-out: microsomal stability t1/2): 44.8 min
solubility at 4 h [7]: 21.9 µM (≈ 8.14 µg/mL)
% at 1 μM hA1 (percentage displacement of specific binding) (hA1AR [8]): 27%

CC1=C(C(=O)OC(C)C)C(c2ccco2)n2c(nc3ccccc32)N1 (centres unmarked) [II, reference compound]
% at 1 μM hA2A (percentage displacement of specific binding) (hA2AAR [1]): 28%
% at 1 μM hA3 (percentage displacement of specific binding) (hA3AR [4]; listed as (±)-ISAM-140): 2%
% at 1 μM hA3 (percentage displacement of specific binding) (hA3AR [4]; listed as ISAM-140): 3%
Ki (A2B): 0.00349 µM
% at 1 μM hA3 (percentage displacement of specific binding) (hA3AR [2]): 2%
% at 1 μM hA2B (percentage displacement of specific binding) (hA2BAR; 1 μM, [3H]DPCPX, human HEK-293 cells, n = 2): 17%
Ki (hA2BAR; [9]): 0.00349 ± 0.0002 µM
Exp. dG (hA2BAR): -11.53
% at 1 μM hA1 (percentage displacement of specific binding) (hA1AR [3]): 20%
% at 1 μM hA2A (percentage displacement of specific binding) (hA2AAR [5]; listed as (±)-ISAM-140): 28%
% at 1 μM hA2A (percentage displacement of specific binding) (hA2AAR [5]; listed as ISAM-140): 7%
% at 1 μM hA1 (percentage displacement of specific binding) (hA1AR [8]; listed as (±)-ISAM-140): 20%
% at 1 μM hA1 (percentage displacement of specific binding) (hA1AR [8]; listed as ISAM-140): 14%

CCOC(=O)C1=C(C)Nc2nc3ccccc3n2C1c1ccco1 (centres unmarked) [I]
% at 1 μM hA2A (percentage displacement of specific binding) (hA2AAR [1]): 14%
Ki (A2B): 0.012 µM
% at 1 μM hA3 (percentage displacement of specific binding) (hA3AR [2]): 1%
Exp. dG (hA2BAR): -10.8
% at 1 μM hA1 (percentage displacement of specific binding) (hA1AR [3]): 5%

CCOC(=O)C1=C(C)Nc2nc3ccccc3n2C1c1ccoc1 (centres unmarked) [III]
% at 1 μM hA2A (percentage displacement of specific binding) (hA2AAR [1]): 11%
% at 1 μM hA3 (percentage displacement of specific binding) (hA3AR [2]): 1%
Exp. dG (hA2BAR): -10.48
% at 1 μM hA1 (percentage displacement of specific binding) (hA1AR [3]): 7%

CC1=C(C(=O)OC(C)C)C(c2cccs2)n2c(nc3ccccc32)N1 (centres unmarked) [VI]
% at 1 μM hA2A (percentage displacement of specific binding) (hA2AAR [1]): 17%
% at 1 μM hA3 (percentage displacement of specific binding) (hA3AR [2]): 3%
Exp. dG (hA2BAR): -8.767
% at 1 μM hA1 (percentage displacement of specific binding) (hA1AR [3]): 1%
